Results reported in patent publication US20060084628A1, “Combination therapy for treating viral infections” (priority 2004, published 2006).
Where two headings read alike, the source gives them in different places.

How the values were obtained:
HBV = assay: Efficacy of daily dosing for HBV; type: in vivo, human; conditions: 5 mg QD dose
Protocol: (§1) From the foregoing results, a therapeutic window of Elvucitabine was identified. It has been determined that a 5 mg QD dose is effective for HBV and, therefore, a plasma AUCss/24 of 300 μg·h/L was identified as the efficacy threshold.

[1] = Population PK analysis of plasma and urine data, healthy subjects, 1×20 mg tablet PO (ACH443-011); conditions: human, in vivo
Protocol: The PK model created included an individual compartmental PK analysis using ADAPT-II® and Population PK analysis using an iterative two-stage population modeling technique (IT2S®) of plasma and urine data from a study of healthy subjects, n=29, 1×20 mg tablet PO (ACH443-011). FIG. 1 illustrates the PK model of Elvucitabine according to a three compartment model characterized by two absorption peaks, each associated with a lag (Tlag1 and Tlag2) time and a first order absorption rate constant (Ka1 and Ka2).
FIG. 2 illustrates an example of individual fit using a Population PK analysis (IT2S).

HIV = assay: In vitro IC50 for HIV; type: cell-based; conditions: Human immunodeficiency virus 1
Protocol: as §1

[2] = Hematology (ANC, white blood cell count) in 12 week study in HBV patients; type: in vivo, human
Protocol: Pharmacodynamics of Elvucitabine was explored by analysis of hematology (absolute neutrophil count, ANC) data obtained from a 12 week study in HBV patients. FIG. 3 illustrates the change in mean white blood cell count from baseline for three dosages of Elvucitabine (5 mg, 20 mg, and 50 mg), 100 mg 3TC, and placebo. […] FIG. 4 is a graphic representation of the change in absolute neutrophils from baseline for the same study. Table 2 provides absolute neutrophil count at 10^9/L for the three doses resulting in a baseline estimated as the mean ANC of about 4×10^9/L. A 25 percent decrease in the mean ANC corresponds to about 3×10^9/L, the threshold for the start of toxicity.

[3] = PK/PD relationship: toxicity threshold and therapeutic window (simulated concentrations vs observed ANC); set-up: species or system human
Description: Pharmacokinetics and pharmacodynamics modeling was used to explore potential dosing regimens for Elvucitabine. A pharmacokinetics (PK) model was developed to describe both the plasma concentration-time data and excreted urinary amounts from previously completed studies with Elvucitabine. With the PK model in hand and pharmacodynamics (PD) results of previously completed studies, the relationship of PK and PD from an efficacy and toxicity standpoint is obtained. From the results of the PK and PD studies, a therapeutic window of Elvucitabine is defined and simulated dosing regimens ranging from 5 mg BID to 100 mg Q1 week were explored using ADAPT II® Pharmacokinetic and Pharmacodynamic Systems Analysis Software. From the simulated dosing regimen results, ten dosing regimens were identified allowing maintenance therapy with Elvucitabine at levels effective against both HIV and HBV while avoiding bone toxicity.
FIG. 5 provides a plot of the mean observed ANC and a simulated concentration-time profile for the 5 mg QD dose. As shown by the graph, the toxicity threshold is not met by the dosing regimen. As provided in FIG. 6, the 20 mg QD dose crosses the toxicity threshold at about 1008 hours.
as §1

Nc1nc(=O)n([C@H]2C=C[C@@H](CO)O2)cc1F [Elvucitabine, 4-amino-5-fluoro-1-((2R,5 S)-5-(hydroxymethyl)-2,5-dihydrofuran-2-yl)pyrimidin-2(1H)-one]
efficacy for HBV (HBV): effective
Vd [1]: 1600 L
fraction of drug excreted unchanged in urine [1]: about 40%
half-life ([1]; distribution (λ2) half-life): 30 h
half-life ([1]; early distribution (λ1) half-life): 0.59 h
half-life ([1]; elimination (λz) half-life): 175 h
CLnr/F ([1]; po): 9.51 L/h
Fu ([1]; po): 39.6%
Vc/F ([1]; po): 30.6 L
Vp1/F ([1]; po): 1232 L
Vp2/F ([1]; po): 369 L
oral clearance (CL/F) ([1]; po): 16 L/h
CL renal ([1]; po, 20 mg): 105 mL/min
CL/F ([1]; po, 20 mg): 15.8 L/h
Vd/F ([1]; population PK, healthy subjects, 20 mg tablet PO, read-out: Vss/F): 1630 L
IC50 (HIV; corresponds to 4.8 nM, read-out: in vitro IC50 for HIV, as concentration): 1.08 ng/mL
IC50 (HIV; read-out: in vitro IC50 for HIV): 4.8 nM
Absolute Neutrophil Count (ANC), Mean ([2]; 5 mg PO daily (n = 17), Week 0): 4.1 10^9/L
Absolute Neutrophil Count (ANC), Mean ([2]; 5 mg PO daily (n = 17), Week 2): 3.4 10^9/L
Absolute Neutrophil Count (ANC), Mean ([2]; 5 mg PO daily (n = 17), Week 4): 3.4 10^9/L
Absolute Neutrophil Count (ANC), Mean ([2]; 5 mg PO daily (n = 17), Week 8): 3.5 10^9/L
Absolute Neutrophil Count (ANC), Mean ([2]; 5 mg PO daily (n = 17), Week 12): 3.6 10^9/L
Absolute Neutrophil Count (ANC), Mean ([2]; 20 mg PO daily (n = 20), Week 0): 3.8 10^9/L
Absolute Neutrophil Count (ANC), Mean ([2]; 20 mg PO daily (n = 20), Week 2): 3.7 10^9/L
Absolute Neutrophil Count (ANC), Mean ([2]; 20 mg PO daily (n = 20), Week 4): 3.2 10^9/L
Absolute Neutrophil Count (ANC), Mean ([2]; 20 mg PO daily (n = 20), Week 8): 2.8 10^9/L
Absolute Neutrophil Count (ANC), Mean ([2]; 20 mg PO daily (n = 20), Week 12): 2.7 10^9/L
change in mean white blood cell count from baseline ([2]; 50 mg (highest dose), HBV patients, FIG. 3): significant decrease
Absolute Neutrophil Count (ANC), Mean ([2]; 50 mg PO daily (n = 19), Week 0): 4.1 10^9/L
Absolute Neutrophil Count (ANC), Mean ([2]; 50 mg PO daily (n = 19), Week 2): 3.1 10^9/L
Absolute Neutrophil Count (ANC), Mean ([2]; 50 mg PO daily (n = 19), Week 4): 2.3 10^9/L
Absolute Neutrophil Count (ANC), Mean ([2]; 50 mg PO daily (n = 19), Week 8): 2.2 10^9/L
Absolute Neutrophil Count (ANC), Mean ([2]; 50 mg PO daily (n = 19), Week 12): 2.6 10^9/L
central compartment (plasma) Cmin correlating with onset of toxicity [3]: ≥ 23 ng/mL
toxicity threshold (mean ANC about 3×10^9/L) ([3]; 5 mg QD, FIG. 5): not met
time at which toxicity threshold (mean ANC about 3×10^9/L) is crossed ([3]; 20 mg QD, FIG. 6): about 1008 hours
time at which toxicity threshold (mean ANC about 3×10^9/L) is reached ([3]; 50 mg QD, FIG. 7): 378 hours
Cmin for efficacy ([3]; HIV, based on in vitro IC50): ≥ 2 ng/mL
plasma AUCss/24 efficacy threshold ([3]; from 5 mg QD effective for HBV): 300 ng·h/mL
Cmax in deepest (P1) compartment at onset of toxicity (ANC <3×10^9/L) ([3]; human): > 40 μg/L
